The results in this text go back to PubChem BioAssay AID256 (DTP/NCI, 2004).

SMILES strings stand for the structures. “And” between values parts separate entries of the source, which are not always exact repeats. Identical values can stand only once. Toxic doses and inconclusive results are not listed.

The test concerns CD2F1 mice, L1210 leukemia ip, survival T/C. The test is described as follows: NCI In Vivo Anticancer Drug Screen. Data for tumor model L1210 Leukemia (intraperitoneal) in CD2F1 (CDF1) mice. The following applies: higher = longer survival. In a few lines: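 Mice carrying a transplanted tumor received test compound or vehicle alone. The value is the measurement in the treated group divided by that in the vehicle-treated control group.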

Take `COc1ccccc1NC(=O)N(CCCl)N=O`: the T/C by setting is: (endpoint: mean survival time, dose: 1.5 mg/kg/injection, schedule: Q01DX009 (ip), vehicle: carboxymethylcellulose (CMC)) 115 % of control; (endpoint: mean survival time, dose: 3.5 mg/kg/injection, schedule: Q01DX009 (ip), vehicle: carboxymethylcellulose (CMC)) 168 % of control.
In the case of `Cc1ccc2c(c1)C(=O)N(CC[P+](c1ccccc1)(c1ccccc1)c1ccccc1)C2=O`, the T/C (endpoint: mean survival time, dose: 0.39 mg/kg/injection, schedule: Q01DX009 (ip), vehicle: Klucel (hydroxypropylcellulose) (HPC)) is 105 % of control; the T/C (endpoint: mean survival time, dose: 0.78 mg/kg/injection, schedule: Q01DX009 (ip), vehicle: Klucel (hydroxypropylcellulose) (HPC)) was 100 % of control; the T/C (endpoint: mean survival time, dose: 1.56 mg/kg/injection, schedule: Q01DX009 (ip), vehicle: Klucel (hydroxypropylcellulose) (HPC)) is 112 % of control; the T/C (endpoint: mean survival time, dose: 3.12 mg/kg/injection, schedule: Q01DX009 (ip), vehicle: Klucel (hydroxypropylcellulose) (HPC)) was 103 % of control; the T/C (endpoint: mean survival time, dose: 6.25 mg/kg/injection, schedule: Q01DX009 (ip), vehicle: Klucel (hydroxypropylcellulose) (HPC)) was 105 % of control; the T/C (endpoint: mean survival time, dose: 12.5 mg/kg/injection, schedule: Q01DX009 (ip), vehicle: Klucel (hydroxypropylcellulose) (HPC)) is 101 % of control. Moreover, where the note is “endpoint: mean survival time, dose: 25.0 mg/kg/injection, schedule: Q01DX009 (ip), vehicle: Klucel (hydroxypropylcellulose) (HPC)”, the T/C was 105 % of control.
For `CC(=O)NC(=O)CC(O)(c1ccccc1)c1ccccc1`, the T/C was 91 % of control (endpoint: mean survival time, dose: 200.0 mg/kg/injection, schedule: Q01DX001 (ip), vehicle: saline with Tween-80) and 88 % of control (endpoint: mean survival time, dose: 400.0 mg/kg/injection, schedule: Q01DX001 (ip), vehicle: saline with Tween-80).
Consider `CN(C)c1ccccc1C1=CCCCC1`, for which the T/C was 96 % of control (endpoint: mean survival time, dose: 50.0 mg/kg/injection, schedule: Q04DX003 (ip), vehicle: saline); 98 % of control (endpoint: mean survival time, dose: 100.0 mg/kg/injection, schedule: Q04DX003 (ip), vehicle: saline); 104 % of control (endpoint: mean survival time, dose: 200.0 mg/kg/injection, schedule: Q04DX003 (ip), vehicle: saline).
In the case of `CCOC(=O)C1=NN(c2ccccc2)C(=O)C1`, the T/C was 94 % of control (endpoint: mean survival time, dose: 100.0 mg/kg/injection, schedule: Q01DX009 (ip), vehicle: saline with Tween-80); 94 % of control (endpoint: mean survival time, dose: 200.0 mg/kg/injection, schedule: Q01DX009 (ip), vehicle: saline with Tween-80); 92 % of control (endpoint: mean survival time, dose: 400.0 mg/kg/injection, schedule: Q01DX009 (ip), vehicle: saline with Tween-80).
For the compound `COc1ccc(S(=O)(=O)NCCN(C)C)cc1NC(C)=O`, the T/C is, setting by setting: (endpoint: mean survival time, dose: 100.0 mg/kg/injection, schedule: Q01DX001 (ip), vehicle: saline) 90 % of control; (endpoint: mean survival time, dose: 200.0 mg/kg/injection, schedule: Q01DX001 (ip), vehicle: saline) 93 % of control; (endpoint: mean survival time, dose: 400.0 mg/kg/injection, schedule: Q01DX001 (ip), vehicle: saline) 100 % of control.
As for `O=C1N(Cc2ccccc2)CC2C(c3ccccc3)NNC12O` (stereo not given), the T/C by setting is: (endpoint: mean survival time, dose: 100.0 mg/kg/injection, schedule: Q04DX003 (ip), vehicle: saline with Tween-80) 89 % of control; (endpoint: mean survival time, dose: 400.0 mg/kg/injection, schedule: Q04DX003 (ip), vehicle: saline with Tween-80) 101 % of control.
Consider `FC(F)(F)/C([S-])=C(/[S-])C(F)(F)F.N#[O+].[Mn].[c-]1[c-][c-][cH-][c-]1`, for which the T/C (endpoint: mean survival time, dose: 75.0 mg/kg/injection, schedule: Q01DX001 (ip), vehicle: other) was 103 % of control.
For the compound `C=CCOc1cc2c(cc1C(C)c1ccc(OC)cc1)OCO2` (stereo not given), the T/C is, setting by setting: (endpoint: median survival time, dose: 25.0 mg/kg/injection, schedule: Q01DX009 (ip), vehicle: Klucel (hydroxypropylcellulose) (HPC)) 100 % of control and 103 % of control; (endpoint: median survival time, dose: 50.0 mg/kg/injection, schedule: Q01DX005 (ip), vehicle: Klucel (hydroxypropylcellulose) (HPC)) 94 % of control; (endpoint: median survival time, dose: 50.0 mg/kg/injection, schedule: Q01DX009 (ip), vehicle: Klucel (hydroxypropylcellulose) (HPC)) 120 % of control and 101 % of control and 104 % of control; (endpoint: median survival time, dose: 50.0 mg/kg/injection, schedule: Q01DX009 (ip), vehicle: saline with Tween-80) 105 % of control; (endpoint: median survival time, dose: 100.0 mg/kg/injection, schedule: Q01DX005 (ip), vehicle: Klucel (hydroxypropylcellulose) (HPC)) 103 % of control; (endpoint: median survival time, dose: 100.0 mg/kg/injection, schedule: Q01DX009 (ip), vehicle: Klucel (hydroxypropylcellulose) (HPC)) 105 % of control and 110 % of control. The T/C (endpoint: median survival time, dose: 100.0 mg/kg/injection, schedule: Q01DX009 (ip), vehicle: saline with Tween-80) is 107 % of control; the T/C (endpoint: median survival time, dose: 200.0 mg/kg/injection, schedule: Q01DX005 (ip), vehicle: Klucel (hydroxypropylcellulose) (HPC)) was 108 % of control; the T/C (endpoint: median survival time, dose: 400.0 mg/kg/injection, schedule: Q01DX005 (ip), vehicle: Klucel (hydroxypropylcellulose) (HPC)) was 118 % of control; the T/C (endpoint: median survival time, dose: 400.0 mg/kg/injection, schedule: Q01DX009 (ip), vehicle: saline with Tween-80) was 124 % of control; the T/C (endpoint: median survival time, dose: 800.0 mg/kg/injection, schedule: Q01DX005 (ip), vehicle: Klucel (hydroxypropylcellulose) (HPC)) is 95 % of control; the T/C (endpoint: median survival time, dose: 800.0 mg/kg/injection, schedule: Q01DX009 (ip), vehicle: saline with Tween-80) is 98 % of control.
